Patent US20040022676A1, “Apparatus and method for controlled delivery of a gas” (Selective Micro Technologies, LLC, priority 2000, published 2004)

Experiments:
microbes = conditions: as low as; cited from earlier work
biofilm = test: Removal of biofilm from contaminated dental equipment with chlorine dioxide solution
Description: Apparatus 1310 can also be incorporated into a pouch like that depicted in FIG. 15 to generate a desired concentration of gas, e.g., chlorine dioxide, in water. This embodiment is particularly useful in wet applications, e.g., for use in removing biofilm from dental equipment. One such apparatus was constructed and used to generate an aqueous solution containing 50 parts per million chlorine dioxide. It was then emptied into a dental equipment reservoir and allowed to run through the equipment, which was contaminated with biolfilm, and stand overnight. In the morning, the dental equipment was flushed with water. This procedure was repeated the following two nights. The equipment was then tested for the presence of biofilm and the biofilm was diminished. Thereafter, rinsing the equipment once daily with a 5 parts per million solution was adequate to retard the growth of biofilm in the equipment.

## [O][Cl+][O-] [chlorine dioxide]
microbes
  concentration at which effective as disinfectant: 0.2 mg/L
biofilm; 50 parts per million solution, run through and left overnight, three nights
  presence of biofilm in dental equipment after treatment: diminished
biofilm; rinsing the equipment once daily, after initial treatment
  concentration of solution adequate to retard the growth of biofilm: 5 parts per million
